Assay results: ChEMBL document CHEMBL1201862, “PubChem BioAssay data set” (2004)
The source made the active and inactive calls.

Legend:
Format in all cases: functional
[1] = target: Melanin-concentrating hormone receptor 1 (Homo sapiens, UniProt Q99705); experiment: Late-stage fluorescence-based counterscreen for antagonists of the G-protein coupled receptor 7 (GPR7): cell-based dose response assay to identify antagonists of the melanin-concentrating hormone receptor 1 (MCHR1) Set 6.
[2] = target: Neuropeptides B/W receptor type 1 (Homo sapiens, UniProt P48145); experiment: GPR7 antagonist potency, late-stage follow-up, cell-based, fluorescence, dose response, set 6 (AID 588583)
Sequence of Neuropeptides B/W receptor type 1 (P48145 whole entry): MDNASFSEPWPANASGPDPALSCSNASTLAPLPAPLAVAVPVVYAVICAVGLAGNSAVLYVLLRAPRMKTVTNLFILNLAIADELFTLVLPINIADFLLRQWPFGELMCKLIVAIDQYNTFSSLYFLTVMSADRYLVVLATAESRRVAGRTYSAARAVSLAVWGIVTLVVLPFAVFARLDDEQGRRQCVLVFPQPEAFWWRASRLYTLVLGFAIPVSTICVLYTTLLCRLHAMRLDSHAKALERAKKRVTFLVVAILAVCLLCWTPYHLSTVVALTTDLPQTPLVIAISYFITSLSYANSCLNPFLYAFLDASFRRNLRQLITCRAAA

[3] = target: Sphingosine 1-phosphate receptor 4 (Homo sapiens, UniProt O95977); experiment: Late-stage fluorescence-based dose-response cell-based counterscreen assay to identify agonists of the Sphingosine 1-Phosphate Receptor 3 (S1P3): Sphingosine 1-Phosphate Receptor 4 (S1P4) agonist assay.
Sequence of Sphingosine 1-phosphate receptor 4 (O95977 whole entry): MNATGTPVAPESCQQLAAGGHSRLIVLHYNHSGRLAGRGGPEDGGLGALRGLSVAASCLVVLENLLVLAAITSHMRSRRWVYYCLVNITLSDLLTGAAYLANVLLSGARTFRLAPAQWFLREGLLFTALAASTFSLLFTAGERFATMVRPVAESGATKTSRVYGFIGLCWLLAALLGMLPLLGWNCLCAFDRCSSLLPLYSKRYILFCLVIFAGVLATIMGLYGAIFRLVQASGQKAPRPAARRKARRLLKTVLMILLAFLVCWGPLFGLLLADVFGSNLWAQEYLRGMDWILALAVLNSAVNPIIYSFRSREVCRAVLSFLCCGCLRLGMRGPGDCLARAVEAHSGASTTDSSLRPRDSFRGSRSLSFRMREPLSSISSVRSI

[4] = target: Sphingosine 1-phosphate receptor 2 (Homo sapiens, UniProt O95136); experiment: Late-stage fluorescence-based dose-response cell-based counterscreen assay to identify agonists of the Sphingosine 1-Phosphate Receptor 3 (S1P3): Sphingosine 1-Phosphate Receptor 2 (S1P2) agonist assay.
Sequence of Sphingosine 1-phosphate receptor 2 (O95136 whole entry): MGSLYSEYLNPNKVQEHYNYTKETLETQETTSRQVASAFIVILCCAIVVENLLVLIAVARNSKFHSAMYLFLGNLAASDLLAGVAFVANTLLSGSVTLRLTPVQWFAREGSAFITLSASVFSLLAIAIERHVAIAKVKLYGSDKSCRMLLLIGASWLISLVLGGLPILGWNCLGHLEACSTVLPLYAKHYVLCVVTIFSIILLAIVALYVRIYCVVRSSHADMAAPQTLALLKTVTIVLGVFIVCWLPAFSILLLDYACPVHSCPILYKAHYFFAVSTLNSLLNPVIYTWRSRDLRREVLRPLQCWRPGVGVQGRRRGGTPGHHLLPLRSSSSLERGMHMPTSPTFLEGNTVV

[5] = Late-stage assay provider results from the probe development effort to identify agonists of the Sphingosine 1-Phosphate Receptor 3 (S1P3): luminescence-based cell-based dose response counterscreen assay to determine cytotoxicity of agonist compounds.
[6] = target: Sphingosine 1-phosphate receptor 5 (Homo sapiens, UniProt Q9H228); experiment: Late-stage fluorescence-based dose-response cell-based counterscreen assay to identify agonists of the Sphingosine 1-Phosphate Receptor 3 (S1P3): Sphingosine 1-Phosphate Receptor 5 (S1P5) agonist assay.
Sequence of Sphingosine 1-phosphate receptor 5 (Q9H228 whole entry): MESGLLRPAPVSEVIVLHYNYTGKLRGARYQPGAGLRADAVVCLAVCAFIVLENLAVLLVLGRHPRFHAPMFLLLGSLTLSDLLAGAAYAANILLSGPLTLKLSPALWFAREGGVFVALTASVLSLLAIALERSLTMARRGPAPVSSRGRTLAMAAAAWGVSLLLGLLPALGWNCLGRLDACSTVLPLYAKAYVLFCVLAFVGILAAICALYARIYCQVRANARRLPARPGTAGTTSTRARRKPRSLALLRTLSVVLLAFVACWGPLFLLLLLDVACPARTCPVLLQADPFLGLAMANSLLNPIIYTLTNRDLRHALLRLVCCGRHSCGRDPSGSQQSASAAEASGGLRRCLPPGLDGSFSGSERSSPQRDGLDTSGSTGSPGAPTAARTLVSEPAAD

[7] = target: Death-associated protein kinase 3 (Homo sapiens, UniProt O43293);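 further: measured as one member of a kinome-wide profiling panel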
[8] = target: Tyrosine-protein kinase BTK (Homo sapiens, UniProt Q06187)
[9] = target: Tyrosine-protein kinase Lck (Homo sapiens, UniProt P06239);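 further: lck was assayed as one member of a kinase panel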
[10] = target: Cyclin-dependent kinase 8 (Homo sapiens, UniProt P49336); experiment: Navigating the Kinome. Panel member name: CDK8
[11] = target: T1, Tyrosine-protein kinase JAK3 (Homo sapiens, UniProt P52333)
T1 sequence (P52333 whole entry): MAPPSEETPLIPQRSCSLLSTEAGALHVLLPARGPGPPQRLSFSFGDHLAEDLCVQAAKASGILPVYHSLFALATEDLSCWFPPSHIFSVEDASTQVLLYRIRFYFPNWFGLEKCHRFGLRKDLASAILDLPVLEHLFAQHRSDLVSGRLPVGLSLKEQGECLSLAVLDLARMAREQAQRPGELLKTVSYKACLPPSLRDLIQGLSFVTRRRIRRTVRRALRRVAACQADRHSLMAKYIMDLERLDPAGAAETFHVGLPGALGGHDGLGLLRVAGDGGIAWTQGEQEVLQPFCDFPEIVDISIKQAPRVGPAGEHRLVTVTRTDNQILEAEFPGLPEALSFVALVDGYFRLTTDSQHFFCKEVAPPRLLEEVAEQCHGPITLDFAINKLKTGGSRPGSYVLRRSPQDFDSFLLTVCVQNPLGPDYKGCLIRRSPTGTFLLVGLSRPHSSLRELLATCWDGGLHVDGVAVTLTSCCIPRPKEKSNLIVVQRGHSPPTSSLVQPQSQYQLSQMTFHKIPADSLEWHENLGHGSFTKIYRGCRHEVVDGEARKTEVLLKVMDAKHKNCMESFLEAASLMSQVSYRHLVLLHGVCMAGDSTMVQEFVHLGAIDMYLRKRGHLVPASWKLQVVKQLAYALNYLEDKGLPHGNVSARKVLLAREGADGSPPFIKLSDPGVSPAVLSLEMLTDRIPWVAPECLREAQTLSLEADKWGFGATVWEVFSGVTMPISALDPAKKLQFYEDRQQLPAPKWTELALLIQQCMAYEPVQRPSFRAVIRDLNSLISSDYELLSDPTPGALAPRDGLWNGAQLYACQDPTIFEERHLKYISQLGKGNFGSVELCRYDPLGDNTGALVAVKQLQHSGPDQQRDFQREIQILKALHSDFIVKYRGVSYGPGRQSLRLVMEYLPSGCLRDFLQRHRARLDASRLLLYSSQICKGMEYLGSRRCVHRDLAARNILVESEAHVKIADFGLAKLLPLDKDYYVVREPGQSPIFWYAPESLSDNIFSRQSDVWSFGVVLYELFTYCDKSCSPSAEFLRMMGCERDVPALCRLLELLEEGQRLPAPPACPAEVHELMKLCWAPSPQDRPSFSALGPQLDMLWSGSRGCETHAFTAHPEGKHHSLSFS

[12] = target: Activin receptor type-1 (Homo sapiens, UniProt Q04771); experiment: Navigating the Kinome. Panel member name: ACVR1
[13] = target: Casein kinase I isoform alpha (Homo sapiens, UniProt P48729)
[14] = target: Mitogen-activated protein kinase kinase kinase kinase 4 (Homo sapiens, UniProt O95819)
[15] = target: G protein-coupled receptor kinase 5 (Homo sapiens, UniProt P34947); experiment: Navigating the Kinome. Panel member name: GPRK5
[16] = target: Serine/threonine-protein kinase TAO1 (Homo sapiens, UniProt Q7L7X3)
Sequence of Serine/threonine-protein kinase TAO1 (Q7L7X3 whole entry): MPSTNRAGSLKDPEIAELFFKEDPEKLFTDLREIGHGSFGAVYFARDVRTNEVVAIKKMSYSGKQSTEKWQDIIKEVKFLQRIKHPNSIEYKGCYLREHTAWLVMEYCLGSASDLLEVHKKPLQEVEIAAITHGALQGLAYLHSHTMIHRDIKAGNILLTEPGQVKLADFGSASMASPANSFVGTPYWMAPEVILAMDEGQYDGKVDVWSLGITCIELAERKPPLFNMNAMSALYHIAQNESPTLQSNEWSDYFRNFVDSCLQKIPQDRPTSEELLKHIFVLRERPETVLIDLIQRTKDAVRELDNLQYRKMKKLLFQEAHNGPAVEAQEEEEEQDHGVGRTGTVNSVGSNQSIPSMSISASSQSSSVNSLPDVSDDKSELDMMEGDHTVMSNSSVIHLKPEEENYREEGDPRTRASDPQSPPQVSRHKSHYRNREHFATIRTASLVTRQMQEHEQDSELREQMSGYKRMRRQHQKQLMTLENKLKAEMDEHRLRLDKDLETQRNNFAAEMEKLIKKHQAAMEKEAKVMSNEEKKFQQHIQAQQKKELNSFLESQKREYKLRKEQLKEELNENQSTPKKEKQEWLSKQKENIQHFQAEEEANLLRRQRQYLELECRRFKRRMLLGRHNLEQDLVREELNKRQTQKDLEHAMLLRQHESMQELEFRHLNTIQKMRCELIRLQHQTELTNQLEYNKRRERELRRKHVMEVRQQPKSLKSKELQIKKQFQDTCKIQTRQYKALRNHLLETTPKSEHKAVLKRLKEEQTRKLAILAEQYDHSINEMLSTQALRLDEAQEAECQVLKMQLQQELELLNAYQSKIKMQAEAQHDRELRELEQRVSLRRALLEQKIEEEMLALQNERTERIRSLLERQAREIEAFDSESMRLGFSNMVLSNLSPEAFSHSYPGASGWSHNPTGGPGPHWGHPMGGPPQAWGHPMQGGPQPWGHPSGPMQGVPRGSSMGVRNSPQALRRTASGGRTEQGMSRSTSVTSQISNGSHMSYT

[17] = target: Serine/threonine-protein kinase D3 (Homo sapiens, UniProt O94806);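 further: determined within a kinase panel screen, with PRKCN as the panel member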
Sequence of Serine/threonine-protein kinase D3 (O94806 whole entry): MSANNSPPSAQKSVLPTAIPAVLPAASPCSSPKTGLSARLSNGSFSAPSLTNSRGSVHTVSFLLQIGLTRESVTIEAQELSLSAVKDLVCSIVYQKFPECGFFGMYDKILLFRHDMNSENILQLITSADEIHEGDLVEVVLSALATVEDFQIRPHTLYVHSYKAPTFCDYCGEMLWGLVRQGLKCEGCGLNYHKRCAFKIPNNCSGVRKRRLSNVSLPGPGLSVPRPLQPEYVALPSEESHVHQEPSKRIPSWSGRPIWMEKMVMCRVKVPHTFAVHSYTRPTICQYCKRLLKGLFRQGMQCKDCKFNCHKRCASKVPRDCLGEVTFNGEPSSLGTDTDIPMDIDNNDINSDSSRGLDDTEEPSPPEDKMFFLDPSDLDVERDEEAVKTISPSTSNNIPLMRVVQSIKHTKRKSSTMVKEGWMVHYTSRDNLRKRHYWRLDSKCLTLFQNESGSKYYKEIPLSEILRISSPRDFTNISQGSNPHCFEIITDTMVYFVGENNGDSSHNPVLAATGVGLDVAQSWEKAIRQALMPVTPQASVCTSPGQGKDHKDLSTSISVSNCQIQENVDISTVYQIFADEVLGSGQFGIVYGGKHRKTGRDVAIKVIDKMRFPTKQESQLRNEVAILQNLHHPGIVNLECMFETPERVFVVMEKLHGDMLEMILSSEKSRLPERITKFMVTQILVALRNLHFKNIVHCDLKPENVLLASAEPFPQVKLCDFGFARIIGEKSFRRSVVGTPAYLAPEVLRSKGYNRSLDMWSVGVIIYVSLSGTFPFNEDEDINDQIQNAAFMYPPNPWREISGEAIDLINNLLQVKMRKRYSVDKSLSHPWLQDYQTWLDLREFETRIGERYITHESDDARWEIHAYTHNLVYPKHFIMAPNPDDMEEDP

[18] = target: Aurora kinase B (Homo sapiens, UniProt Q96GD4)
[19] = target: Glycogen synthase kinase-3 alpha (Homo sapiens, UniProt P49840);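 further: GSK3A result taken from a broad kinome-wide kinase panel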
[20] = target: Serine/threonine-protein kinase pim-1 (Homo sapiens, UniProt P11309)
[21] = target: ALK tyrosine kinase receptor (Homo sapiens, UniProt Q9UM73);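 further: ALK tested as one member of a kinase panel screen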
[22] = target: Mitogen-activated protein kinase 14 (Homo sapiens, UniProt Q16539);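 further: part of a kinome-wide panel, MAPK14 entry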
[23] = target: Focal adhesion kinase 1 (Homo sapiens, UniProt Q05397);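 further: measured as one member of a kinome panel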
[24] = target: Activated CDC42 kinase 1 (Homo sapiens, UniProt Q07912); experiment: Navigating the Kinome. Panel member name: ACK1
[25] = target: Serine/threonine-protein kinase PAK 4 (Homo sapiens, UniProt O96013);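 further: value obtained within a kinome profiling panel in which PAK4 was one of the panel members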
[26] = target: Tyrosine-protein kinase Fyn (Homo sapiens, UniProt P06241)
Sequence of Tyrosine-protein kinase Fyn (P06241 whole entry): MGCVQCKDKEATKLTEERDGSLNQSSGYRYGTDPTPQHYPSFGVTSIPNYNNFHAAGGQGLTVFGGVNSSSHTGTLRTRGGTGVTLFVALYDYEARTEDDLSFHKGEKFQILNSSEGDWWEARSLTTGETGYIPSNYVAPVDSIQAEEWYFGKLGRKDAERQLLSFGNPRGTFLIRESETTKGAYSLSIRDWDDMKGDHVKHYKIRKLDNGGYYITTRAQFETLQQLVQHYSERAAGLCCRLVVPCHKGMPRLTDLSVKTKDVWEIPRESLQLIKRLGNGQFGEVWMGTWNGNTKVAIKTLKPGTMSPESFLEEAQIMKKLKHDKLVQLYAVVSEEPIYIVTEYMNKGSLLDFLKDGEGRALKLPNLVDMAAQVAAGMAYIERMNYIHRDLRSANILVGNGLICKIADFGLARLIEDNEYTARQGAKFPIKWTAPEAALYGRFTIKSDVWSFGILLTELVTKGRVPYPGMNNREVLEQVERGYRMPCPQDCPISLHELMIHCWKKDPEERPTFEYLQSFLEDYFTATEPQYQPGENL

[27] = target: Mitogen-activated protein kinase 8 (Homo sapiens, UniProt P45983);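 further: value comes from one member of a kinome-wide kinase profiling panel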
[28] = target: Fibroblast growth factor receptor 1 (Homo sapiens, UniProt P11362)
[29] = target: Cyclin-dependent kinase 7 (Homo sapiens, UniProt P50613);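 further: value comes from a kinome-wide kinase profiling panel in which CDK7 is one member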
[30] = target: Dual specificity protein kinase CLK2 (Homo sapiens, UniProt P49760)
[31] = target: T2, Serine/threonine-protein kinase Chk1 (Homo sapiens, UniProt O14757);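 further: measured as one member of a kinome-wide kinase profiling panel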
T2 sequence (O14757 whole entry): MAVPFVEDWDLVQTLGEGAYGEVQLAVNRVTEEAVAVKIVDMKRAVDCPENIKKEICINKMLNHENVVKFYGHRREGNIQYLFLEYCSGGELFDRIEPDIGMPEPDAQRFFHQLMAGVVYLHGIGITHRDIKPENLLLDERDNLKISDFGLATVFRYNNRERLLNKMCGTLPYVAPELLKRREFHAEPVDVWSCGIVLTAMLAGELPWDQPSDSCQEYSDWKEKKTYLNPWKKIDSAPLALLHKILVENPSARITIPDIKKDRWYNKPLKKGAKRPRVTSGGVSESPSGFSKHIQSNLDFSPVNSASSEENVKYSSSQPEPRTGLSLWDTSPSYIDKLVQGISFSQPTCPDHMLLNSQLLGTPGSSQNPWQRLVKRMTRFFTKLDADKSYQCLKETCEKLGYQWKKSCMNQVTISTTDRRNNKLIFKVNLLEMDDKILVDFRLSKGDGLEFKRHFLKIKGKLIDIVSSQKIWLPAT

[32] = target: Calcium/calmodulin-dependent protein kinase type II subunit alpha (Homo sapiens, UniProt Q9UQM7); experiment: Navigating the Kinome. Panel member name: CAMK2A
Sequence of Calcium/calmodulin-dependent protein kinase type II subunit alpha (Q9UQM7 whole entry): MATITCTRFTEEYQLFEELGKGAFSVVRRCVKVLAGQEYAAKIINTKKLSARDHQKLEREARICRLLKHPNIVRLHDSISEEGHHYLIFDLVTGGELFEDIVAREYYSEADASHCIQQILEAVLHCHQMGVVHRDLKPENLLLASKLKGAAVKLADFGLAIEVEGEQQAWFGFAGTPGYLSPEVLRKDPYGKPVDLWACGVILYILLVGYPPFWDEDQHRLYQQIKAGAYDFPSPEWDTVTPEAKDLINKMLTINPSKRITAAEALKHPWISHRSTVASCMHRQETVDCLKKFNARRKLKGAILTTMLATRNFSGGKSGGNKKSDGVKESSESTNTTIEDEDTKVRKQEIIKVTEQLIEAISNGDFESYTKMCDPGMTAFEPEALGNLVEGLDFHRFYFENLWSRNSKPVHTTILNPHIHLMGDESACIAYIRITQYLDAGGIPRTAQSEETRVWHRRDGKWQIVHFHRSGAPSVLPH

Sequence of Melanin-concentrating hormone receptor 1 (Q99705 whole entry): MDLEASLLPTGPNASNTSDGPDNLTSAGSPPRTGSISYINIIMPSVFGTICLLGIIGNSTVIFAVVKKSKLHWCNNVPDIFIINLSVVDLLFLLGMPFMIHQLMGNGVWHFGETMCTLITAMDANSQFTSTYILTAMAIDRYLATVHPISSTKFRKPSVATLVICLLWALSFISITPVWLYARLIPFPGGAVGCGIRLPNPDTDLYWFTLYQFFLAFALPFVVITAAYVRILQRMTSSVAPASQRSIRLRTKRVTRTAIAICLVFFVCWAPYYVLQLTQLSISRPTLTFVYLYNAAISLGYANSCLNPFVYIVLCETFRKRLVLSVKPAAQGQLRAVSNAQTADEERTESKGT

In the case of `COc1ccc(Oc2c(Cl)cnn(Cc3ccccc3C(=O)O)c2=O)cc1`, the IC50 [1] is reported as > 20 µM (inactive) and the IC50 [2] is reported as > 20 µM (inactive).
In the case of `O=C(c1cc(C2CC2)on1)N(C1CCCCC1)C1CCCCC1`, the EC50 [3] is reported as > 50 µM (inactive), the EC50 [4] is reported as > 50 µM (inactive) and the CC50 [5] is reported as > 10 µM (inactive). The EC50 [6] was > 25 µM (inactive).
For `CCOC(=O)Cc1nc2c(N)cccc2[nH]1`, the Ki [7] was > 5.01 µM (inactive), the Ki [8] was > 6.31 µM (inactive) and the Ki [9] was > 6.31 µM (inactive). The Ki [10] was > 3.98 µM (inactive), the Ki [11] was > 5.01 µM (inactive) and the Ki [12] was > 3.98 µM (inactive). The Ki [13] was > 3.98 µM (inactive), the Ki [14] was > 5.01 µM (inactive) and the Ki [15] was > 3.98 µM (inactive). The Ki [16] was > 6.31 µM (inactive), the Ki [17] was > 3.98 µM (inactive) and the Ki [18] was > 3.98 µM (inactive). For the same molecule, the Ki [19] was > 3.98 µM (inactive), the Ki [20] was > 6.31 µM (inactive) and the Ki [21] was > 6.31 µM (inactive). The Ki [22] was > 3.98 µM (inactive), the Ki [23] was > 6.31 µM (inactive) and the Ki [24] was > 3.98 µM (inactive). The Ki [25] was > 5.01 µM (inactive), the Ki [26] was > 6.31 µM (inactive) and the Ki [27] was > 5.01 µM (inactive). For the same molecule, the Ki [28] was > 3.98 µM (inactive), the Ki [29] was > 3.98 µM (inactive) and the Ki [30] was > 3.98 µM (inactive). The Ki [31] was 0.398 µM (active) and the Ki [32] was > 3.98 µM (inactive).
